Test results taken from PubChem BioAssay (NCI).
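Method: 48-hour compound exposure of cells in 96-well plates, five concentrations, linear interpolation of endpoints. GI50 = concentration required for 50% inhibition of growth. TGI is the concentration that stops growth completely.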

Key:
Assay in all cases: NCI anticancer screen, dose series, 48 h
A498 renal = system: A498 renal
A549 NSCLC = system: A549 NSCLC
ACHN renal = system: ACHN renal
HCT-15 colon = system: HCT-15 colon
HOP-92 NSCLC = system: HOP-92 NSCLC
IGROV1 ovarian = system: IGROV1 ovarian
K-562 leukemia = system: K-562 leukemia
MALME-3M melanoma = system: MALME-3M melanoma
NCI/ADR-RES ovarian = system: NCI/ADR-RES ovarian
SNB-75 CNS = system: SNB-75 CNS

Row | SMILES | GI50 (A498 renal) | TGI (A498 renal) | GI50 (A549 NSCLC) | TGI (A549 NSCLC) | GI50 (ACHN renal) | TGI (ACHN renal) | GI50 (HCT-15 colon) | TGI (HCT-15 colon) | GI50 (HOP-92 NSCLC) | TGI (HOP-92 NSCLC) | GI50 (IGROV1 ovarian) | TGI (IGROV1 ovarian) | GI50 (K-562 leukemia) | TGI (K-562 leukemia) | GI50 (MALME-3M melanoma) | TGI (MALME-3M melanoma) | GI50 (NCI/ADR-RES ovarian) | TGI (NCI/ADR-RES ovarian) | TGI (SNB-75 CNS) | GI50 (SNB-75 CNS)
1 | COc1ccc2cc(/C=C/C(=O)c3ccc(Cl)cc3Cl)ccc2c1 | 28.8 µM | 58.9 µM | 26 µM | > 100 µM | 35.4 µM | > 100 µM | 31 µM | > 100 µM | 97.7 µM | > 100 µM | 42.9 µM | > 100 µM | 20.5 µM | 68.8 µM | 27 µM | 73.9 µM | 31 µM | 96.5 µM |  | 
2 | COC(=O)C1C(O)CCC2CN3CCc4c([nH]c5ccccc45)C3CC21 (stereo not drawn) |  | > 100 µM |  | > 100 µM | > 100 µM | > 100 µM |  | > 100 µM |  | > 100 µM |  | > 100 µM |  | > 100 µM |  | > 100 µM |  | > 100 µM | > 100 µM | 
3 | COc1cc(F)c(F)c(Nc2ccc(I)cc2F)c1NS(=O)(=O)C1(C[C@H](O)CO)CC1 | 0.0936 µM | 0.478 µM | 0.628 µM | > 10 µM | 0.897 µM | > 10 µM | 1.67 µM | > 10 µM | 0.189 µM | 1.68 µM | 0.223 µM | > 5.56 µM | 1.34 µM | > 10 µM | 0.0198 µM | 0.22 µM | > 5.58 µM | > 10 µM | > 10 µM | 2.62 µM
4 | C=CCn1c(C)nc2ccc(Nc3nc(Nc4ccc(F)cc4)nc4ccccc34)cc21 | 4.36 µM | 24.1 µM | 4.18 µM | 22.2 µM | 1.99 µM | 4.31 µM | 2.84 µM | 10.4 µM | 0.585 µM | 6.97 µM | 6.09 µM | 27.2 µM | 3.13 µM | 11.9 µM | 13.1 µM | 35.7 µM | 4.01 µM | 37.7 µM | 3.37 µM | 1.51 µM
5 | CC(=O)Oc1ccc(C23c4ccccc4C2(OC(C)=O)c2cc(OC(C)=O)ccc23)cc1 (stereo not drawn) | 34.8 µM | > 100 µM | 17.6 µM | 70.2 µM | 1.94 µM | 5.4 µM | 3.81 µM | 17.7 µM | 5.01 µM | 20.3 µM | 5.86 µM | 27.2 µM | 4.04 µM | > 100 µM | 9.61 µM | 27.3 µM | 2.82 µM | 10.2 µM | 54.7 µM | 6.49 µM
6 | COC(=O)c1cc2c3ccccc3n3c(=O)c4cc5ccc(N(S(=O)(=O)c6ccc(C)cc6)S(=O)(=O)c6ccc(C)cc6)cc5nc4c(n1)c23 | 34.8 µM | 70.2 µM | > 100 µM | > 100 µM | 17.2 µM | 82.6 µM | > 100 µM | > 100 µM | 12.4 µM | 34.3 µM | 43.7 µM | > 100 µM | 39.4 µM | > 100 µM | 69.7 µM | > 100 µM | > 100 µM | > 100 µM | > 100 µM | 44.5 µM
7 | COc1cccc(/C(C#N)=C/c2nc3c(N4CCOCC4)nc(Cl)nc3n2C)c1 | 1.49 µM | 2.91 µM | 1.57 µM | 4.23 µM | 0.625 µM | 1.89 µM | 0.312 µM | 1.3 µM | 0.453 µM | 2.21 µM | 1.2 µM | 2.49 µM | 0.447 µM | 10.3 µM | 1.57 µM | 2.97 µM | 2.31 µM | 9.31 µM | 1.79 µM | 0.305 µM
8 | COc1cc(C2SCCCCCCCCCCSC(c3ccc(O)c(OC)c3)SCCCCCCCCCCS2)ccc1O (stereo not drawn) |  | > 100 µM |  | > 100 µM |  | > 100 µM |  | > 100 µM |  | > 100 µM |  | > 100 µM |  | > 100 µM |  | > 100 µM |  | > 100 µM | > 100 µM | 
9 | CCC(O)c1ccc(Br)cc1NC(=O)c1cccc(Cl)c1 (stereo not drawn) | 16.3 µM | 54 µM | 19.5 µM | > 100 µM | 23.1 µM | > 100 µM | 23.1 µM | > 100 µM | 12.1 µM | 65.6 µM | 17.2 µM | 92.6 µM | 15.6 µM | > 100 µM | 36.6 µM | > 100 µM | 23.4 µM | > 100 µM | > 100 µM | 10.8 µM
10 | CC(C)c1c(-c2ccccc2)nc2c(C#N)c[nH]n2c1=O | 13 µM | 51.1 µM | 33.4 µM | > 100 µM | 30.6 µM | > 90.9 µM | 31.8 µM | > 100 µM | 7.85 µM | 49.6 µM | 34.3 µM | > 100 µM | 33.8 µM | > 100 µM | 24.3 µM | 73.3 µM | 31.2 µM | > 100 µM | > 95.2 µM | 21.4 µM
11 | COc1ccc2c(=O)cc(-c3ccccc3)[nH]c2c1 | 0.263 µM | 5.32 µM | 0.67 µM |  | 4.22 µM | > 100 µM | 0.518 µM | > 100 µM | 0.378 µM | > 100 µM | 0.578 µM | > 100 µM | 0.439 µM | > 100 µM | 0.684 µM | > 100 µM | 0.547 µM | 6.15 µM | > 100 µM | 
12 | CC[n+]1oc(C(=O)c2ccc(Cl)cc2)c(-c2ccccc2)c1-c1ccccc1.[Cl][Fe]([Cl])([Cl])[Cl] | 22.2 µM | 75.1 µM | 22.1 µM | 68 µM | 33.5 µM | 99.3 µM | 72.6 µM | > 100 µM | 27.1 µM | 62.9 µM |  |  | > 100 µM | > 100 µM | 39.7 µM | > 100 µM | > 100 µM | > 100 µM | > 100 µM | 30.4 µM
13 | CCCCCCCCOC(=O)CC[C@@H](C)[C@H]1CC[C@H]2[C@@H]3[C@H](OC(=O)CCN)C[C@@H]4C[C@H](OC(=O)CCN)CC[C@]4(C)[C@H]3C[C@H](OC(=O)CCN)[C@]12C | 23.8 µM | 48.1 µM | 10.9 µM | 27.1 µM | 15.9 µM | 32.2 µM | 16.4 µM | 38.9 µM | 2.29 µM | 6.74 µM | 3.24 µM | 9.1 µM |  |  | 2.58 µM | 5.86 µM | 17.2 µM | 37.8 µM | 13.6 µM | 3.32 µM
